Test results taken from US4421911A, “Deoxydesmycosin” (priority 1981, dated 1983).
Converted amounts (≈) assume the structure as drawn. Where two headings read alike, the source gives them in different places.

Tests used:
Assay type in all cases: cell-based
[1] = tested on: Staphylococcus aureus 0119; assay: Minimum inhibitory concentration (MIC), Staphylococcus aureus 0119
Description: (§1) The minimum inhibitory concentration (MIC) of the compounds of the present invention is illustrated in Table 1.
(§2) *Macrolide registant strain A group (clinical isolates of erythromycin,
(§3) oleandomycin and 16membered macrolide antibiotics registant strains)

[2] = tested on: Streptococcus pyogenes 1022; assay: Minimum inhibitory concentration (MIC), Streptococcus pyogenes 1022
Description: as §1, §2, §3

[3] = tested on: Staphylococcus aureus MS353; assay: Minimum inhibitory concentration (MIC), Staphylococcus aureus MS353
[4] = tested on: Staphylococcus aureus 0116; assay: Minimum inhibitory concentration (MIC), Staphylococcus aureus 0116
Description: as §1, §2, §3

[5] = tested on: Streptococcus pyogenes N.Y.5; assay: Minimum inhibitory concentration (MIC), Streptococcus pyogenes N.Y.5
[6] = tested on: Staphylococcus aureus MS353AO; assay: Minimum inhibitory concentration (MIC), Staphylococcus aureus MS353AO; conditions: macrolide resistant strain A group
Description: as §1, §2, §3

[7] = tested on: Staphylococcus aureus ATCC6538p; assay: Minimum inhibitory concentration (MIC), Staphylococcus aureus ATCC6538p
[8] = tested on: Staphylococcus aureus 0127; assay: Minimum inhibitory concentration (MIC), Staphylococcus aureus 0127
Description: as §1, §2, §3

[9] = Streptococcus pyogenes 1022, macrolide resistant strain A group, read-out: MIC
[10] = Staphylococcus aureus 0116, macrolide resistant strain A group, read-out: MIC
[11] = Staphylococcus aureus 0127, macrolide resistant strain A group, read-out: MIC

Row | SMILES | MIC ([1]; Staphylococcus aureus, 0119) | MIC [2, 9] | MIC [3] | MIC [4, 10] | MIC [5] | MIC [6] | MIC [7] | MIC [8, 11] | MIC ([1]; Staphylococcus aureus 0119, macrolide resistant strain A group, read-out: MIC) | MIC ([8]; Staphylococcus aureus, 0127) | MIC ([2]; Streptococcus pyogenes, 1022) | MIC ([4]; Staphylococcus aureus, 0116)
1 | CCC1OC(=O)CC(O)C(C)C(OC2OC(C)CC(N(C)C)C2O)C(CC=O)CC(C)C(=O)/C=C/C(C)=C/C1COC1OC(C)CC(OC)C1OC (centres unmarked) [R1 = H, R2 = H, 4', 4"-di-deoxy-desmycosin] | 12.5 µg/mL (≈ 16.9 µM) | 25 µg/mL (≈ 33.8 µM) | 0.2 µg/mL (≈ 0.27 µM) | 3.1 µg/mL (≈ 4.19 µM) | ≤ 0.05 µg/mL | 50 µg/mL (≈ 67.6 µM) | 0.4 µg/mL (≈ 0.541 µM) | 12.5 µg/mL (≈ 16.9 µM) |  |  |  | 
2 | CCC1OC(=O)CC(O)C(C)C(OC2OC(C)CC(N(C)C)C2O)C(CC=O)CC(C)C(=O)/C=C/C(C)=C/C1COC1OC(C)C(O)C(OC)C1OC (centres unmarked) [R1 = H, R2 = OH, 4'-deoxy-desmycosin] | 6.3 µg/mL (≈ 8.33 µM) | 3.1 µg/mL (≈ 4.1 µM) | 0.8 µg/mL (≈ 1.06 µM) | 3.1 µg/mL (≈ 4.1 µM) | 0.1 µg/mL (≈ 0.132 µM) | 50 µg/mL (≈ 66.1 µM) | 0.8 µg/mL (≈ 1.06 µM) | 12.5 µg/mL (≈ 16.5 µM) |  |  |  | 
3 | CCC1OC(=O)CC(O)C(C)C(OC2OC(C)C(O)C(N(C)C)C2O)C(CC=O)CC(C)C(=O)/C=C/C(C)=C/C1COC1OC(C)CC(OC)C1OC (centres unmarked) [R1 = OH, R2 = H, 4"-deoxy-desmycosin] |  | 3.1 µg/mL (≈ 4.1 µM) | 0.4 µg/mL (≈ 0.529 µM) | 1.6 µg/mL (≈ 2.12 µM) | ≤ 0.05 µg/mL | 6.3 µg/mL (≈ 8.33 µM) | 0.4 µg/mL (≈ 0.529 µM) |  | 1.6 µg/mL (≈ 2.12 µM) | 6.3 µg/mL (≈ 8.33 µM) |  | 
4 | CC[C@H]1OC(=O)C[C@@H](O)[C@H](C)[C@@H](O[C@@H]2O[C@H](C)[C@@H](O[C@H]3C[C@@](C)(O)[C@@H](O)[C@H](C)O3)[C@H](N(C)C)[C@H]2O)[C@@H](CC=O)C[C@@H](C)C(=O)/C=C/C(C)=C/[C@@H]1CO[C@@H]1O[C@H](C)[C@@H](O)[C@@H](OC)[C@H]1OC [Tylosin, tylosin, reference compound] | > 100 µg/mL |  | 1.6 µg/mL (≈ 1.75 µM) |  | 0.2 µg/mL (≈ 0.218 µM) | > 100 µg/mL | 0.8 µg/mL (≈ 0.873 µM) |  |  | > 100 µg/mL | > 100 µg/mL | > 100 µg/mL
